Measured values: PubChem BioAssay (NCI)
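Values below derive from 48-hour exposures of cells grown in 96-well plates, with endpoints linearly interpolated between the two concentrations bracketing the appropriate inhibition level. The concentration for 50% growth inhibition is given as GI50. TGI: concentration producing complete growth inhibition.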

Columns and labels:
Experiment in all cases: NCI tumour cell line growth inhibition, 48 h
HCC-2998 colon = tested on: HCC-2998 colon
UACC-62 melanoma = tested on: UACC-62 melanoma
SR leukemia = tested on: SR leukemia
KM12 colon = tested on: KM12 colon
ACHN renal = tested on: ACHN renal
NCI-H23 lung = tested on: NCI-H23 lung
EKVX NSCLC = tested on: EKVX NSCLC
MOLT-4 leukemia = tested on: MOLT-4 leukemia
NCI-H522 lung = tested on: NCI-H522 lung
CCRF-CEM leukemia = tested on: CCRF-CEM leukemia

CCCCCCCCCCCCCCCC1=NCCN1
GI50 (HCC-2998 colon): 1.85 µM
TGI (HCC-2998 colon): 3.42 µM
GI50 (UACC-62 melanoma): 2.3 µM
TGI (UACC-62 melanoma): 4.94 µM
GI50 (SR leukemia): 1.84 µM
TGI (SR leukemia): 4.31 µM
GI50 (KM12 colon): 1.83 µM
TGI (KM12 colon): 3.45 µM
GI50 (ACHN renal): 1.85 µM
TGI (ACHN renal): 3.7 µM
GI50 (NCI-H23 lung): 2.04 µM
TGI (NCI-H23 lung): 4.78 µM
GI50 (EKVX NSCLC): 1.86 µM
TGI (EKVX NSCLC): 4.39 µM

CCCCCOCC(O)CO (stereo unspecified)
TGI (UACC-62 melanoma): > 100 µM
TGI (KM12 colon): > 100 µM
TGI (ACHN renal): > 100 µM
TGI (NCI-H23 lung): > 100 µM
TGI (EKVX NSCLC): > 100 µM

Cn1c(=O)c(Oc2ccc(F)cc2F)cc2cnc(NC(C)(C)CO)nc21
GI50 (HCC-2998 colon): > 25 µM
TGI (HCC-2998 colon): > 25 µM
GI50 (UACC-62 melanoma): > 25 µM
TGI (UACC-62 melanoma): > 25 µM
GI50 (MOLT-4 leukemia): > 25 µM
TGI (MOLT-4 leukemia): > 25 µM
GI50 (SR leukemia): > 25 µM
TGI (SR leukemia): > 25 µM
GI50 (KM12 colon): > 25 µM
TGI (KM12 colon): > 25 µM
GI50 (ACHN renal): > 25 µM
TGI (ACHN renal): > 25 µM
GI50 (NCI-H23 lung): > 25 µM
TGI (NCI-H23 lung): > 25 µM
GI50 (NCI-H522 lung): > 25 µM
TGI (NCI-H522 lung): > 25 µM
GI50 (CCRF-CEM leukemia): > 25 µM
TGI (CCRF-CEM leukemia): > 25 µM

CC1CCN(Cc2ccc(NC(=O)c3cc4ccc5cccnc5c4[nH]3)cc2)CC1
GI50 (HCC-2998 colon): 2.55 µM
TGI (HCC-2998 colon): 5.8 µM
GI50 (UACC-62 melanoma): 2.17 µM
TGI (UACC-62 melanoma): 4.54 µM
GI50 (MOLT-4 leukemia): 3 µM
TGI (MOLT-4 leukemia): 9.85 µM
GI50 (SR leukemia): 2.29 µM
TGI (SR leukemia): 6.65 µM
GI50 (KM12 colon): 5.31 µM
TGI (KM12 colon): 35.8 µM
GI50 (ACHN renal): 5.47 µM
TGI (ACHN renal): 23.1 µM
GI50 (NCI-H23 lung): 14.4 µM
TGI (NCI-H23 lung): 37.7 µM

N#CC12CCC1C1CCCCC12N1CCSCC1 (stereo unspecified)
TGI (HCC-2998 colon): > 100 µM
TGI (UACC-62 melanoma): > 100 µM
TGI (MOLT-4 leukemia): > 100 µM
TGI (SR leukemia): > 100 µM
TGI (KM12 colon): > 100 µM
TGI (ACHN renal): > 100 µM
TGI (NCI-H23 lung): > 10 µM
TGI (CCRF-CEM leukemia): > 100 µM

CCC(=O)N1C(=O)OCC1C(C)C (stereo unspecified)
TGI (HCC-2998 colon): > 100 µM
TGI (UACC-62 melanoma): > 100 µM
TGI (MOLT-4 leukemia): > 100 µM
TGI (KM12 colon): > 100 µM
TGI (ACHN renal): > 100 µM
TGI (NCI-H23 lung): > 100 µM
TGI (CCRF-CEM leukemia): > 100 µM
TGI (EKVX NSCLC): > 100 µM

COc1ccc(/C(=N\NC(=O)NN)C(c2ccc(OC)cc2)C2(O)C(=O)Nc3c(Cl)cc(Cl)cc32)cc1 (stereo unspecified)
TGI (HCC-2998 colon): > 100 µM
TGI (UACC-62 melanoma): > 100 µM
TGI (MOLT-4 leukemia): > 100 µM
TGI (KM12 colon): > 100 µM
TGI (ACHN renal): > 100 µM
TGI (NCI-H23 lung): > 100 µM
TGI (CCRF-CEM leukemia): > 100 µM
TGI (EKVX NSCLC): > 100 µM

N#CC(C(=O)C(=O)Nc1ccccc1)c1ccccc1 (stereo unspecified)
TGI (UACC-62 melanoma): > 100 µM
TGI (MOLT-4 leukemia): > 100 µM
TGI (SR leukemia): > 100 µM
TGI (KM12 colon): > 100 µM
TGI (ACHN renal): > 100 µM
TGI (NCI-H23 lung): > 100 µM
TGI (NCI-H522 lung): > 100 µM
TGI (CCRF-CEM leukemia): > 100 µM
TGI (EKVX NSCLC): > 100 µM

COc1ccc2c(c1)c(-c1nc(-c3c[nH]c4ncccc34)cs1)cn2CCCN1CCCCC1
GI50 (HCC-2998 colon): 1.78 µM
TGI (HCC-2998 colon): 3.42 µM
GI50 (UACC-62 melanoma): 1.87 µM
TGI (UACC-62 melanoma): 3.53 µM
GI50 (KM12 colon): 1.87 µM
TGI (KM12 colon): 3.86 µM
GI50 (ACHN renal): 1.62 µM
TGI (ACHN renal): 3.01 µM
GI50 (NCI-H23 lung): 1.77 µM
TGI (NCI-H23 lung): 3.52 µM
GI50 (EKVX NSCLC): 1.44 µM
TGI (EKVX NSCLC): 2.9 µM

CC(C)N1CCN(c2ccncc2S(=O)(=O)N2CCCCC2)CC1
TGI (HCC-2998 colon): > 100 µM
TGI (UACC-62 melanoma): > 100 µM
TGI (SR leukemia): > 100 µM
TGI (KM12 colon): > 100 µM
TGI (ACHN renal): > 100 µM
TGI (NCI-H23 lung): > 100 µM
TGI (NCI-H522 lung): > 100 µM
TGI (EKVX NSCLC): > 100 µM

COc1cc(/C=C(\NC(=O)c2ccccc2)c2nc3ccc4c(c3[nH]2)C(=O)c2ccccc2C4=O)cc(OC)c1OC
TGI (HCC-2998 colon): > 100 µM
TGI (UACC-62 melanoma): > 100 µM
TGI (MOLT-4 leukemia): 43 µM
TGI (KM12 colon): > 100 µM
TGI (NCI-H23 lung): > 100 µM
TGI (NCI-H522 lung): > 100 µM
TGI (CCRF-CEM leukemia): > 100 µM
TGI (EKVX NSCLC): > 100 µM

O=C1CSC(=S)N1c1ccco1
TGI (MOLT-4 leukemia): > 100 µM
TGI (SR leukemia): > 100 µM
TGI (KM12 colon): 52.6 µM
TGI (ACHN renal): > 100 µM
TGI (NCI-H23 lung): > 100 µM
TGI (NCI-H522 lung): 64.1 µM
TGI (CCRF-CEM leukemia): > 100 µM
TGI (EKVX NSCLC): > 100 µM

CC(C)C12Cc3c(ccc4ccccc34)OC1(C)Oc1ccc3ccccc3c1C2 (stereo unspecified)
TGI (UACC-62 melanoma): > 100 µM
TGI (MOLT-4 leukemia): > 100 µM
TGI (SR leukemia): > 100 µM
TGI (KM12 colon): > 100 µM
TGI (ACHN renal): > 100 µM
TGI (NCI-H23 lung): > 100 µM
TGI (NCI-H522 lung): > 100 µM
TGI (CCRF-CEM leukemia): > 100 µM
TGI (EKVX NSCLC): > 100 µM

COc1ccc(/C=C2\CN(C(=O)C(Cl)Cl)C/C(=C\c3ccc(OC)cc3)C2=O)cc1
GI50 (HCC-2998 colon): 1.02 µM
TGI (HCC-2998 colon): 2.2 µM
GI50 (MOLT-4 leukemia): 1.78 µM
TGI (MOLT-4 leukemia): > 100 µM
GI50 (SR leukemia): 0.357 µM
TGI (SR leukemia): > 100 µM
GI50 (KM12 colon): 0.332 µM
TGI (KM12 colon): 1.16 µM
GI50 (ACHN renal): 1.67 µM
TGI (ACHN renal): 4.7 µM
GI50 (NCI-H23 lung): 1.56 µM
TGI (NCI-H23 lung): 4 µM
GI50 (CCRF-CEM leukemia): 0.528 µM
TGI (CCRF-CEM leukemia): > 100 µM

O=c1c2ccc(S(=O)(=O)c3ccc4c(=O)n5c6ccccc6nc5c5cccc3c45)c3cccc(c32)c2nc3ccccc3n12
TGI (HCC-2998 colon): > 100 µM
TGI (UACC-62 melanoma): > 100 µM
TGI (KM12 colon): > 100 µM
TGI (ACHN renal): 30.2 µM
TGI (NCI-H23 lung): > 100 µM
TGI (NCI-H522 lung): > 100 µM
TGI (EKVX NSCLC): > 100 µM

O=C(O)C[C@@H](Cl)[C@H](NC(=O)OCc1ccccc1)C(=O)O
TGI (HCC-2998 colon): > 100 µM
TGI (UACC-62 melanoma): > 100 µM
TGI (MOLT-4 leukemia): > 100 µM
TGI (KM12 colon): > 100 µM
TGI (ACHN renal): > 100 µM
TGI (NCI-H23 lung): > 100 µM
TGI (NCI-H522 lung): > 100 µM
TGI (CCRF-CEM leukemia): > 100 µM
TGI (EKVX NSCLC): > 100 µM

COc1cc(C2CC(c3cccc(Nc4ccnc5cc(Cl)ccc45)c3)=NN2c2ccc(Cl)cc2)cc(OC)c1OC (stereo unspecified)
GI50 (HCC-2998 colon): 3.14 µM
TGI (HCC-2998 colon): 22.1 µM
GI50 (UACC-62 melanoma): 0.311 µM
TGI (UACC-62 melanoma): 19.9 µM
GI50 (MOLT-4 leukemia): 3.68 µM
TGI (MOLT-4 leukemia): > 100 µM
GI50 (SR leukemia): 2.54 µM
TGI (SR leukemia): > 100 µM
GI50 (KM12 colon): 0.818 µM
TGI (KM12 colon): 93.6 µM
GI50 (ACHN renal): 1.48 µM
TGI (ACHN renal): > 100 µM
GI50 (NCI-H23 lung): 17.5 µM
TGI (NCI-H23 lung): > 100 µM
GI50 (NCI-H522 lung): 1.57 µM
TGI (NCI-H522 lung): 22.8 µM
GI50 (CCRF-CEM leukemia): 4.84 µM
TGI (CCRF-CEM leukemia): > 100 µM

COc1cc(OC)c(C(=O)c2cccs2)cc1N
TGI (HCC-2998 colon): > 100 µM
TGI (UACC-62 melanoma): > 100 µM
TGI (MOLT-4 leukemia): > 100 µM
TGI (KM12 colon): > 100 µM
TGI (ACHN renal): > 100 µM
TGI (NCI-H23 lung): > 100 µM
TGI (CCRF-CEM leukemia): > 100 µM
TGI (EKVX NSCLC): > 100 µM

C=C(CN1CCN(c2ccc(C(F)(F)F)cc2)CC1)c1ccc(C(=O)Nc2ccccc2N)cc1
GI50 (HCC-2998 colon): 30.2 µM
TGI (HCC-2998 colon): > 100 µM
GI50 (UACC-62 melanoma): 23 µM
TGI (UACC-62 melanoma): > 100 µM
GI50 (MOLT-4 leukemia): 0.153 µM
TGI (MOLT-4 leukemia): 1.06 µM
GI50 (SR leukemia): 1.1 µM
TGI (SR leukemia): > 100 µM
GI50 (KM12 colon): 7.64 µM
TGI (KM12 colon): > 100 µM
GI50 (ACHN renal): 9.64 µM
TGI (ACHN renal): > 100 µM
GI50 (NCI-H23 lung): 9.49 µM
TGI (NCI-H23 lung): > 100 µM
GI50 (NCI-H522 lung): 1.85 µM
TGI (NCI-H522 lung): > 100 µM
GI50 (EKVX NSCLC): 12.3 µM
TGI (EKVX NSCLC): > 100 µM

Cc1cccc(-n2c(N)c(-c3nc4ccccc4[nH]3)sc2=S)c1
TGI (UACC-62 melanoma): 78.1 µM
TGI (MOLT-4 leukemia): 54.6 µM
TGI (KM12 colon): 52.2 µM
TGI (ACHN renal): 99 µM
TGI (NCI-H23 lung): > 100 µM
TGI (NCI-H522 lung): 75.7 µM
TGI (CCRF-CEM leukemia): > 100 µM
TGI (EKVX NSCLC): 82.7 µM
